Target: T1, haematopoietic prostaglandin D synthase (H-PGDS) (Homo sapiens, UniProt O60760)
T1 construct: Full length human H-PGDS cDNA (Invitrogen Ultimate ORF IOH13026) was amplified by PCR; 6-His (N); TEV protease cleavage site (N); made in house; host or cells: E. coli BL21 (DE3*)
Assay: H-PGDS RapidFire high throughput mass spectrometry assay (conversion of PGH2 to PGD2)
Format: biochemical
Settings: 10 nM H-PGDS, PGH2 formed in situ by COX-2 from arachidonic acid; four parameter curve fit; read-out: Potency Range (mean pIC50) (converted)
Method in brief: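 His-tagged full-length human H-PGDS from E. coli converts PGH2, generated in situ at ~10 μM from arachidonic acid by FLAG-tagged human COX-2 from Sf9 cells. RapidFire SPE-triple quadrupole MS measures PGD2 against PGF2α as substrate surrogate; percent conversion is calculated.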

T1 sequence (O60760 whole entry): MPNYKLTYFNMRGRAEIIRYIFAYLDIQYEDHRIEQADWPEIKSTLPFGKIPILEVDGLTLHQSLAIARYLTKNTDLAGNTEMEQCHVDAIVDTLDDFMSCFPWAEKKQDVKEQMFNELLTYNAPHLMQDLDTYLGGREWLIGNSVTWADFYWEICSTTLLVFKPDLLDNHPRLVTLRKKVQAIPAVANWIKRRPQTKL

| SMILES | IC50 [nM] |
| --- | --- |
| CC(C)(O)[C@H]1CC[C@H](NC(=O)c2cnc3nc(N4CCC4)ncc3c2)CC1 [Example 79, 2-(Azetidin-1-yl)-N-((trans)-4-(2-hydroxypropan-2-yl)cyclohexyl)pyrido[2,3-d]pyrimidine-6-carboxamide] | 10 to 79.4 |
| CC1CCN1c1cc2ncc(C(=O)N[C@H]3CC[C@H](C(C)(C)O)CC3)cc2cn1 (mixture of isomers) [Example 11, N-(trans-4-(2-Hydroxypropan-2-yl)cyclohexyl)-7-(2-methylazetidin-1-yl)-1,6-naphthyridine-3-carboxamide] | 10 to 79.4 |

From patent publication US11149035B2, “Chemical compounds as H—PGDS inhibitors” (GlaxoSmithKline Intellectual Property Development Limited, priority 2017, dated 2021)
